Measured values reported in patent US20060122267A1, “Compositions and methods for attenuating mitochondria-mediated cell injury” (priority 2003, published 2006).
Entries after “also recorded” stand apart in the source; their conditions may differ.

Key:
mitochondrial proteins = test: Biotin-switch analysis of mitochondrial protein S-nitrosation; format: biochemical, rat; conditions: for S-nitrosation of entire mitochondrial protein extract, comparison of NO donors: S-nitrosoglutathione 1 mM, DETA-NONOate 2 mM, ONOO- 3 additions of 100 μM, 37° C., 40 minutes
Protocol: Rat heart mitochondria were isolated using differential centrifugation (Tompkins, et al. (2005) Biochim. Biophys. Acta PMID: 16278076). Protein was determined by the Folin-phenol method (Lowry, et al. (1951) J. Bio. Chem. 193:265-75) against a standard curve constructed using bovine serum albumin. Mitochondrial incubations and all subsequent steps were performed in the dark. One mg of mitochondrial protein was suspended in 1 mL of mitochondrial respiration buffer (Tompkins, et al. (2005) supra) containing respiratory substrates glutamate (5 mM), malate (2.5 mM) and succinate (5 mM). […] Samples were centrifuged (5 minutes, 14,000×g), and supernatants removed. The pellets were then resuspended in 1 mL of respiration buffer, and centrifuged again. Pellets were frozen in liquid N2 for subsequent analysis. For ONOO^− treatments, 4 μL of 25 mM ONOO^− stock (100 μM final concentration) was added the cap of the reaction tube, the cap quickly closed and the tube shaken immediately. The process was then repeated twice at 30 second intervals, for a total of 3 additions. Mitochondria were then pelleted, washed, and frozen as for S-nitrosoglutathione samples. Complex I activity was assayed as the rotenone-sensitive oxidation of NADH, at 340 nm in the presence of coenzyme Q1 (Borutaite, et al. (2000) supra). Complex IV was assayed by monitoring the cyanide-sensitive first-order oxidation of reduced cytochrome c, at 550 nm according to established methods (Cleeter, et al. (1994) supra).
For biotin-switch analysis, intact mitochondrial pellets (1 mg protein solubilized in extraction buffer) or chromatography column fractions were analyzed in accordance with known methods (Jaffrey & Snyder (2001) supra). Samples were separated in duplicate on non-reducing SDS-PAGE gels; half the gel was stained with COOMASSIE® blue, and the other half blotted and probed with streptavidin-HRP and ECL™ detection (GE biosciences). Blots and stained gels were aligned, and S-nitrosated proteins excised, trypsinized, and identified by peptide mass fingerprinting. Mass spectra (MALDI-TOF) were analyzed using the MASCOT™ algorithm available on the world-wide web at matrixscience.com.

[1] = system: isolated adult rat cardiomyocytes; test: Cardiomyocyte model of ischemia-reperfusion injury, cell viability by Trypan blue exclusion; format: cell-based
Protocol: Isolated adult rat cardiomyocytes were subjected to 1 hour ischemia (anoxic, glucose free medium, pH 6.5) followed by 30 minutes reoxygenation (labeled “HR”). Cell viability was assayed by Trypan blue exclusion. […] All data are means±SEM, N>3.
Adult rat cardiomyocytes were prepared by collagenase perfusion according to standard methods (Dai, et al. (2001) supra), yielding ˜4×10^6 cells per heart, >80% rod-shaped and viable. Incubations were in a shaking water bath at 37° C., each utilizing 5×10^5 cells in 5 mL of the KH buffers described below. For the control, cells were incubated for 2 hours in oxygenated KH buffer (95/5 O2/CO2). For ischemia-reperfusion treatment, cells were subjected to 30 minutes in oxygenated KH buffer, 1 hour in “ischemic” KH buffer (95/5 N2/CO2, pH 6.5, no glucose), and 30 minutes in oxygenated KH buffer. For the ischemia-reperfusion injury and test compound group of cells, ischemia-reperfusion injury was carried out as described above with test compound present during the 30 minute equilibration prior to ischemia-reperfusion and absent during ischemia. […] At the end of each protocol, cell viability was assayed (Trypan blue), and mitochondrial function determined (measurement of ΔΨm with the fluorescent probe TMRE, respiration with an O2 electrode, and S-nitrosothiol content by chemiluminescence and biotin-switch.

[2] = system: isolated adult rat cardiomyocytes; test: Mitochondrial H+ leak in cardiomyocytes (respiration divided by TMRE fluorescence) after ischemia-reperfusion; format: cell-based; conditions: doses that protect cardiomyocyte viability
Protocol: Cardiomyocyte respiration rate was measured with an oxygen electrode, and membrane potential with the fluorescent dye TMRE (20 nM) in a fluorimeter. H^+ leak is essentially the amount of work the respiratory chain must do to maintain a given membrane potential, and experimentally is derived by dividing respiration by TMRE fluoresence. […] All data are means±SEM, N>3.
Adult rat cardiomyocytes were prepared by collagenase perfusion according to standard methods (Dai, et al. (2001) supra), yielding ˜4×10^6 cells per heart, >80% rod-shaped and viable. Incubations were in a shaking water bath at 37° C., each utilizing 5×10^5 cells in 5 mL of the KH buffers described below. For the control, cells were incubated for 2 hours in oxygenated KH buffer (95/5 O2/CO2). For ischemia-reperfusion treatment, cells were subjected to 30 minutes in oxygenated KH buffer, 1 hour in “ischemic” KH buffer (95/5 N2/CO2, pH 6.5, no glucose), and 30 minutes in oxygenated KH buffer. […] At the end of each protocol, cell viability was assayed (Trypan blue), and mitochondrial function determined (measurement of ΔΨm with the fluorescent probe TMRE, respiration with an O2 electrode, and S-nitrosothiol content by chemiluminescence and biotin-switch.

perfused rat hearts = test: Langendorff isolated perfused rat heart model of ischemia-reperfusion injury; conditions: 10 μM infused during equilibration; 25 minutes global ischemia, 30 minutes reperfusion; dark
Protocol: Hearts were perfused in constant flow mode, with Krebs-Henseleit (KH) buffer, gassed with 95/5 O2/CO2. Following equilibration (during which S-nitroso-2-mercaptopropylglycine was infused at 10 μM final concentration), global ischemia was imposed for 25 minutes, followed by 30 minutes of reperfusion. Cardiac functional parameters were measured throughout, with a left-ventricular balloon attached to a pressure transducer. Recovery of rate pressure product (RPP, i.e., left ventricular developed pressure multiplied by heart rate) was greater in S-nitroso-2-mercaptopropylglycine treated hearts. Control hearts in these experiments were subject to dark conditions.
Rat hearts were perfused according to methods well-known in the art (Digerness, et al. (2003) J. Thorac. Cardiovasc. Surg. 125:863-871), with Krebs-Henseleit (KH) buffer, gassed with 95/5 O2/CO2. […] Cardiac functional parameters (left ventricular pressure, rate pressure product, oxygen consumption, diastolic stiffness, etc.) were measured throughout, and mitochondria were isolated at the end of the procedure. Several mitochondrial parameters are then determined including respiration, Ca^2+ loading capacity, reactive oxygen species generation, permeability transition pore opening threshold, respiratory complex activities (Brookes, et al. (2002) Methods Enzymol. 359:305-319), and protein S-nitrosation as disclosed herein.

[3] = system: cell and organ models of ischemia-reperfusion; conditions: cited from earlier work
[4] = cited from earlier work

SMILES: CC(SN=O)C(=O)NCC(=O)O (stereo not shown)
- S-nitrosation of mitochondrial proteins compared with S-nitrosoglutathione (mitochondrial proteins; same concentrations, 10-100 μM): much greater degree of S-nitrosation of mitochondrial proteins than did S-nitrosoglutathione
- protection of cardiomyocyte viability from ischemia-reperfusion injury ([1]; 10 μM or 20 μM, 1 hour ischemia, 30 minutes reoxygenation): dose-dependent and significant protection
- protection of cardiomyocyte viability compared with ischemic preconditioning (IPC) ([1]; higher dose, 20 μM): more effective than IPC
- effect on increase in mitochondrial H+ leak induced by ischemia-reperfusion [2]: prevent large increases in H^+ leak; also recorded: protect against the large increase in proton leak
- recovery of rate pressure product (RPP) after ischemia-reperfusion versus control hearts (perfused rat hearts): greater

SMILES: CC(S)C(=O)NCC(=O)O (stereo not shown) [2-mercaptopropionylglycine, 2-Mercaptopropionylglycine]
- concentrations required to elicit protection [3]: 0.3 to 1.0 mM
- bioavailability ([4]; in vivo): bioavailable
- cellular and mitochondrial distribution ([4]; radioactive tracer, whole animals): readily enters cells and accumulates in mitochondria

SMILES: NCCN(CCN)/[N+]([O-])=N/O [DETA-NONOate]
- S-nitrosation of entire mitochondrial protein extract, comparison of NO donors (mitochondrial proteins): S-nitrosoglutathione resulted in far more S-nitrosation than DETA-NONOate or ONOO^−

SMILES: O=NOO [ONOO^−, peroxynitrite]
- S-nitrosation of entire mitochondrial protein extract, comparison of NO donors (mitochondrial proteins): S-nitrosoglutathione resulted in far more S-nitrosation than DETA-NONOate or ONOO^−
